Measured values taken from the supplement of paper PMC10307832.

How the values were obtained:
Assay in all cases: relative viability (nuclei count vs DMSO), 5 days (fraction); higher = more cells survive
Sulindac + Navitoclax = compound: CC1=C(CC(=O)O)c2cc(F)ccc2/C1=C\c1ccc([S+](C)[O-])cc1 [Sulindac] + CC1(C)CCC(c2ccc(Cl)cc2)=C(CN2CCN(c3ccc(C(=O)NS(=O)(=O)c4ccc(N[C@H](CCN5CCOCC5)CSc5ccccc5)c(S(=O)(=O)C(F)(F)F)c4)cc3)CC2)C1 [Navitoclax] (partner 0.5 µM)
How it was run: (§1)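 After 5 days of treatment, lung cancer cells in 1536-well plates were fixed and stained in a single step (final 0.05% Triton X-100, 1% formaldehyde, 1 ug/ml Hoechst) and their nuclei counted on 4× images. Treatment had been applied by pin tool the day after seeding as one drug alone or as a fixed anchor-drug dose with five library-drug doses (not always all listed) in √10 steps. Relative viability is the nuclei count of treated wells divided by that of vehicle wells, and values are medians of duplicate plates.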

Staurosporine + OSI-027 = compound: CN[C@@H]1C[C@H]2O[C@@](C)([C@@H]1OC)n1c3ccccc3c3c4c(c5c6ccccc6n2c5c31)C(=O)NC4 [Staurosporine] + COc1cccc2cc(-c3nc([C@H]4CC[C@H](C(=O)O)CC4)n4ncnc(N)c34)[nH]c12 [OSI-027] (partner 0.5 µM)
How it was run: as §1

[1] = compound: O=c1[nH]cc(F)c(=O)[nH]1 [5-Fluorouracil] + CC(=O)Nc1cccc(-n2c(=O)n(C3CC3)c(=O)c3c(Nc4ccc(I)cc4F)n(C)c(=O)c(C)c32)c1 [Trametinib] (partner 0.02 µM)
How it was run: as §1

[2] = compound: O=c1[nH]cc(F)c(=O)[nH]1 [5-Fluorouracil] + C[C@]1(O)C[C@@H](c2nc(-c3ccc4ccc(-c5ccccc5)nc4c3)c3c(N)nccn32)C1 [Linsitinib] (partner 1 µM)
How it was run: as §1

NCI-H2085
relative viability (Sulindac + Navitoclax; first compound 0.08 µM): 1.18
relative viability (Sulindac + Navitoclax; first compound 0.253 µM): 1.21
relative viability (Sulindac + Navitoclax; first compound 0.8 µM): 0.979
relative viability (Sulindac + Navitoclax; first compound 2.53 µM): 1.18
relative viability (Sulindac + Navitoclax; first compound 8 µM): 1.14
relative viability (Staurosporine + OSI-027; first compound 0.005 µM): 0.597
relative viability (Staurosporine + OSI-027; first compound 0.01581 µM): 0.168
relative viability (Staurosporine + OSI-027; first compound 0.05 µM): 0.249
relative viability (Staurosporine + OSI-027; first compound 0.1581 µM): 0.155
relative viability (Staurosporine + OSI-027; first compound 0.5 µM): 0.148
relative viability ([1]; first compound 0.02 µM): 0.412
relative viability ([1]; first compound 0.2 µM): 0.607
relative viability ([1]; first compound 0.6325 µM): 0.563
relative viability ([1]; first compound 2 µM): 0.563
relative viability ([2]; first compound 0.02 µM): 0.894
relative viability ([2]; first compound 0.2 µM): 0.963
relative viability ([2]; first compound 0.6325 µM): 0.932
relative viability ([2]; first compound 2 µM): 0.587

EBC-1
relative viability (Sulindac + Navitoclax; first compound 0.08 µM): 0.377
relative viability (Sulindac + Navitoclax; first compound 0.253 µM): 0.387
relative viability (Sulindac + Navitoclax; first compound 0.8 µM): 0.36
relative viability (Sulindac + Navitoclax; first compound 2.53 µM): 0.344
relative viability (Sulindac + Navitoclax; first compound 8 µM): 0.431
relative viability ([2]; first compound 0.02 µM): 0.859
relative viability ([2]; first compound 0.2 µM): 0.928
relative viability ([2]; first compound 0.6325 µM): 0.814
relative viability ([2]; first compound 2 µM): 0.605

NCI-H1792
relative viability (Sulindac + Navitoclax; first compound 0.08 µM): 0.796
relative viability (Sulindac + Navitoclax; first compound 0.253 µM): 0.682
relative viability (Sulindac + Navitoclax; first compound 2.53 µM): 0.681
relative viability (Sulindac + Navitoclax; first compound 8 µM): 0.691
relative viability (Staurosporine + OSI-027; first compound 0.01581 µM): 0.635
relative viability (Staurosporine + OSI-027; first compound 0.05 µM): 0.347
relative viability (Staurosporine + OSI-027; first compound 0.1581 µM): 0.282
relative viability (Staurosporine + OSI-027; first compound 0.5 µM): 0.323
relative viability ([1]; first compound 0.02 µM): 0.367
relative viability ([1]; first compound 0.2 µM): 0.278
relative viability ([1]; first compound 0.6325 µM): 0.172
relative viability ([1]; first compound 2 µM): 0.167
relative viability ([2]; first compound 0.02 µM): 0.554
relative viability ([2]; first compound 0.2 µM): 0.484
relative viability ([2]; first compound 0.6325 µM): 0.14
relative viability ([2]; first compound 2 µM): 0.0794

ABC-1
relative viability (Staurosporine + OSI-027; first compound 0.005 µM): 0.209
relative viability (Staurosporine + OSI-027; first compound 0.01581 µM): 0.14
relative viability (Staurosporine + OSI-027; first compound 0.05 µM): 0.0972
relative viability (Staurosporine + OSI-027; first compound 0.1581 µM): 0.0855
relative viability (Staurosporine + OSI-027; first compound 0.5 µM): 0.0778
relative viability ([2]; first compound 0.02 µM): 0.739
relative viability ([2]; first compound 0.2 µM): 0.987
relative viability ([2]; first compound 0.6325 µM): 0.714
relative viability ([2]; first compound 2 µM): 0.748

NCI-H1650
relative viability (Sulindac + Navitoclax; first compound 0.08 µM): 1.23
relative viability (Sulindac + Navitoclax; first compound 0.253 µM): 1.12
relative viability (Sulindac + Navitoclax; first compound 0.8 µM): 1.16
relative viability (Sulindac + Navitoclax; first compound 2.53 µM): 1.04
relative viability (Sulindac + Navitoclax; first compound 8 µM): 1.38
relative viability (Staurosporine + OSI-027; first compound 0.005 µM): 0.357
relative viability (Staurosporine + OSI-027; first compound 0.01581 µM): 0.187
relative viability (Staurosporine + OSI-027; first compound 0.05 µM): 0.142
relative viability (Staurosporine + OSI-027; first compound 0.1581 µM): 0.168
relative viability ([1]; first compound 0.02 µM): 0.745
relative viability ([1]; first compound 0.2 µM): 0.532
relative viability ([1]; first compound 0.6325 µM): 0.33
relative viability ([1]; first compound 2 µM): 0.254

NCI-H1563
relative viability (Staurosporine + OSI-027; first compound 0.005 µM): 0.65
relative viability (Staurosporine + OSI-027; first compound 0.01581 µM): 0.573
relative viability (Staurosporine + OSI-027; first compound 0.05 µM): 0.562
relative viability (Staurosporine + OSI-027; first compound 0.1581 µM): 0.523
relative viability (Staurosporine + OSI-027; first compound 0.5 µM): 0.488
relative viability ([2]; first compound 0.02 µM): 1.08
relative viability ([2]; first compound 0.2 µM): 1.25
relative viability ([2]; first compound 0.6325 µM): 1.12
relative viability ([2]; first compound 2 µM): 0.994

SW 900
relative viability (Staurosporine + OSI-027; first compound 0.005 µM): 0.334
relative viability (Staurosporine + OSI-027; first compound 0.01581 µM): 0.182
relative viability (Staurosporine + OSI-027; first compound 0.05 µM): 0.204
relative viability (Staurosporine + OSI-027; first compound 0.1581 µM): 0.108
relative viability (Staurosporine + OSI-027; first compound 0.5 µM): 0.0798
relative viability ([1]; first compound 0.02 µM): 0.747
relative viability ([1]; first compound 0.2 µM): 0.735
relative viability ([1]; first compound 0.6325 µM): 0.59
relative viability ([1]; first compound 2 µM): 0.558

NCI-H1299
relative viability (Sulindac + Navitoclax; first compound 0.08 µM): 1.11
relative viability (Sulindac + Navitoclax; first compound 0.253 µM): 1.05
relative viability (Sulindac + Navitoclax; first compound 0.8 µM): 1.02
relative viability (Sulindac + Navitoclax; first compound 2.53 µM): 1.05
relative viability (Sulindac + Navitoclax; first compound 8 µM): 1.05
relative viability ([2]; first compound 0.02 µM): 1.09
relative viability ([2]; first compound 0.2 µM): 0.982
relative viability ([2]; first compound 0.6325 µM): 0.825
relative viability ([2]; first compound 2 µM): 0.59

A549
relative viability (Sulindac + Navitoclax; first compound 0.08 µM): 1.63
relative viability (Sulindac + Navitoclax; first compound 0.253 µM): 1.29
relative viability (Sulindac + Navitoclax; first compound 2.53 µM): 1.21
relative viability (Sulindac + Navitoclax; first compound 8 µM): 1.46
relative viability ([2]; first compound 0.02 µM): 0.633
relative viability ([2]; first compound 0.2 µM): 0.652
relative viability ([2]; first compound 0.6325 µM): 0.301
relative viability ([2]; first compound 2 µM): 0.119

NCI-H1623
relative viability (Staurosporine + OSI-027; first compound 0.005 µM): 0.517
relative viability (Staurosporine + OSI-027; first compound 0.01581 µM): 0.542
relative viability (Staurosporine + OSI-027; first compound 0.05 µM): 0.547
relative viability (Staurosporine + OSI-027; first compound 0.1581 µM): 0.441
relative viability (Staurosporine + OSI-027; first compound 0.5 µM): 0.304

NCI-H2170
relative viability (Sulindac + Navitoclax; first compound 0.08 µM): 0.564
relative viability (Sulindac + Navitoclax; first compound 0.253 µM): 0.638
relative viability (Sulindac + Navitoclax; first compound 0.8 µM): 0.495
relative viability (Sulindac + Navitoclax; first compound 2.53 µM): 0.71
relative viability (Sulindac + Navitoclax; first compound 8 µM): 0.6
relative viability (Staurosporine + OSI-027; first compound 0.005 µM): 0.815
relative viability (Staurosporine + OSI-027; first compound 0.05 µM): 0.576
relative viability (Staurosporine + OSI-027; first compound 0.1581 µM): 0.175
relative viability (Staurosporine + OSI-027; first compound 0.5 µM): 0.0943
relative viability ([1]; first compound 0.02 µM): 0.976
relative viability ([1]; first compound 0.2 µM): 0.78
relative viability ([1]; first compound 0.6325 µM): 0.478
relative viability ([1]; first compound 2 µM): 0.312

NCI-H2342
relative viability (Staurosporine + OSI-027; first compound 0.005 µM): 0.702
relative viability (Staurosporine + OSI-027; first compound 0.01581 µM): 0.482
relative viability (Staurosporine + OSI-027; first compound 0.05 µM): 0.438
relative viability (Staurosporine + OSI-027; first compound 0.1581 µM): 0.402
relative viability (Staurosporine + OSI-027; first compound 0.5 µM): 0.37
relative viability ([1]; first compound 0.02 µM): 0.932
relative viability ([1]; first compound 0.2 µM): 0.762
relative viability ([1]; first compound 0.6325 µM): 0.843
relative viability ([1]; first compound 2 µM): 0.662

Calu-6
relative viability (Sulindac + Navitoclax; first compound 0.08 µM): 1.1
relative viability (Sulindac + Navitoclax; first compound 0.253 µM): 1.04
relative viability (Sulindac + Navitoclax; first compound 0.8 µM): 0.627
relative viability (Sulindac + Navitoclax; first compound 2.53 µM): 0.756
relative viability (Sulindac + Navitoclax; first compound 8 µM): 1.21
relative viability ([2]; first compound 0.02 µM): 0.975
relative viability ([2]; first compound 0.2 µM): 1.01
relative viability ([2]; first compound 0.6325 µM): 0.82
relative viability ([2]; first compound 2 µM): 0.61

ChaGo-K-1
relative viability (Sulindac + Navitoclax; first compound 0.08 µM): 1.01
relative viability (Sulindac + Navitoclax; first compound 0.253 µM): 0.925
relative viability (Sulindac + Navitoclax; first compound 0.8 µM): 1.21
relative viability (Sulindac + Navitoclax; first compound 2.53 µM): 0.897
relative viability (Sulindac + Navitoclax; first compound 8 µM): 1.56
relative viability (Staurosporine + OSI-027; first compound 0.005 µM): 0.678
relative viability (Staurosporine + OSI-027; first compound 0.01581 µM): 0.203
relative viability (Staurosporine + OSI-027; first compound 0.05 µM): 0.553
relative viability (Staurosporine + OSI-027; first compound 0.1581 µM): 0.135
relative viability (Staurosporine + OSI-027; first compound 0.5 µM): 0.118
relative viability ([1]; first compound 0.02 µM): 0.934
relative viability ([1]; first compound 0.2 µM): 0.796
relative viability ([1]; first compound 0.6325 µM): 0.691
relative viability ([1]; first compound 2 µM): 0.499

LCLC-103H
relative viability (Staurosporine + OSI-027; first compound 0.005 µM): 0.531
relative viability (Staurosporine + OSI-027; first compound 0.01581 µM): 0.219
relative viability (Staurosporine + OSI-027; first compound 0.05 µM): 0.168
relative viability (Staurosporine + OSI-027; first compound 0.1581 µM): 0.194
relative viability (Staurosporine + OSI-027; first compound 0.5 µM): 0.153
relative viability ([1]; first compound 0.02 µM): 0.733
relative viability ([1]; first compound 0.2 µM): 0.671
relative viability ([1]; first compound 0.6325 µM): 0.598
relative viability ([1]; first compound 2 µM): 0.566
relative viability ([2]; first compound 0.02 µM): 1.16
relative viability ([2]; first compound 0.2 µM): 1.04
relative viability ([2]; first compound 0.6325 µM): 0.955
relative viability ([2]; first compound 2 µM): 0.645
